Source: patent US20100286145A1, “ISOPHTHALAMIDE DERIVATIVES INHIBITING BETA-SECRETASE ACTIVITY” (CoMentis, Inc., priority 2007, published 2010)

Legend:
memapsin 2 = memapsin 2 (Homo sapiens, UniProt P56817); assay: Inhibition of memapsin 2 beta-secretase activity (fluorogenic substrate FS-2); assay type: biochemical; conditions: memapsin 2, pH 4, 37° C., 20 minutes pre-incubation; read-out: M2Ki
Outline: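 Memapsin 2 pre-incubated 20 min with compound at pH 4, 37° C, then FS-2 substrate (MCA-SEVNLDAEFK-DNP, APP Swedish cleavage site) added. Rate of fluorescence increase compared with uninhibited controls, fitted to a tight-binding inhibition model.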

[1] = test system: Aβ production in Chinese hamster ovary cells that over-express human APP695 with the London and Swedish mutations; assay: Cellular Aβ IC50 determination (Aβ40 sandwich ELISA); assay type: cell-based; conditions: Cricetulus griseus; cellular Aβ production; read-out: IC50
Method: The potency of compounds against memapsin 2 activity was determined in a cellular assay of Aβ production. […] Chinese hamster ovary cells that over-express human APP695 with the London and Swedish mutations were seeded in multi-well plates at 10% confluency. Compounds are dissolved in DMSO to concentrations near 1 mM, and diluted into culture media to a final concentration near 4 μM (final 0.4% DMSO). […] Aliquots were removed and assayed for Aβ40 content using a sandwich ELISA (BioSource International). Amount of Aβ40 over the range of concentration of compounds, relative to control incubations, were fit to a 4-parameter IC50 model.

Chain of memapsin 2 (P56817 46-501): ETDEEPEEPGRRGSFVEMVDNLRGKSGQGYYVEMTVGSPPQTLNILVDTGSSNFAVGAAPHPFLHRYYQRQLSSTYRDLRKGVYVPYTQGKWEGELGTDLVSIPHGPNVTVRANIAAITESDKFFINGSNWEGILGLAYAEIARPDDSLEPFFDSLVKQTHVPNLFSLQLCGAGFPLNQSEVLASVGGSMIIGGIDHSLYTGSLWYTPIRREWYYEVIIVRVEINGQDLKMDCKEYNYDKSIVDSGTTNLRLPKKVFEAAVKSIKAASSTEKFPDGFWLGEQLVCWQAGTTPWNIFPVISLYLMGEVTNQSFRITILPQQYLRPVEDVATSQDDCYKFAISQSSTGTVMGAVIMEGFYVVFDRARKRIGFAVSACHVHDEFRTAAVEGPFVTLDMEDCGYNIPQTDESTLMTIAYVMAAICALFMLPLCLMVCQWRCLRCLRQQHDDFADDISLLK

SMILES | Ki (memapsin 2) [µM] | IC50 [1] [µM]
COc1cccc(CNC[C@@H](O)[C@H](Cc2ccccc2)NC(=O)c2cc(C(=O)N(C)Cc3nc(C)cs3)cc(-c3ncco3)c2)c1 [Compound 85, N1-((2S,3R)-3-hydroxy-4-(3-methoxybenzylamino)-1-phenylbutan-2-yl)-N3-methyl-N3-((4-methylthiazol-2-yl)methyl)-5-(oxazol-2-yl)isophthalamide] | < 0.3 | < 1
Cc1csc(CN(C)C(=O)c2cccc(C(=O)N[C@@H](Cc3ccccc3)[C@H](O)CNCc3cncc(C(C)(C)F)c3)c2)n1 [Compound 92, N1-((2S,3R)-4-((5-(2-fluoropropan-2-yl)pyridin-3-yl)methylamino)-3-hydroxy-1-phenylbutan-2-yl)-N3-methyl-N3-((4-methylthiazol-2-yl)methyl)isophthalamide] | < 0.3 | < 1
Cc1csc(CNC(=O)c2cccc(C(=O)N[C@@H](Cc3ccccc3)[C@H](O)CNCc3cc(C(C)C)c(C)nc3C)c2)n1 [Compound 93, N1-((2S,3R)-3-hydroxy-4-((5-isopropyl-2,6-dimethylpyridin-3-yl)methylamino)-1-phenylbutan-2-yl)-N3-((4-methylthiazol-2-yl)methyl)isophthalamide] | 0.301 to 0.5 | < 1
CNC(=O)c1cc(C(=O)N[C@@H](Cc2ccccc2)[C@H](O)CNCc2cccc(OC)c2)cc(C(=O)N[C@H](C)c2ccccc2)c1 [Compound 94, N1-((2S,3R)-3-hydroxy-4-(3-methoxybenzylamino)-1-phenylbutan-2-yl)-N3-methyl-N5-((R)-1-phenylethyl)benzene-1,3,5-tricarboxamide] | > 0.501 | 1 to 5
Cc1coc(CN(C)C(=O)c2cccc(C(=O)N[C@@H](Cc3ccccc3)[C@H](O)CNCc3cncc(C(C)C)c3)c2)n1 [Compound 95, N1-((2S,3R)-3-hydroxy-4-((5-isopropylpyridin-3-yl)methylamino)-1-phenylbutan-2-yl)-N3-methyl-N3-((4-methyloxazol-2-yl)methyl)isophthalamide] | < 0.3 | < 1
COC(=O)c1cccc(CNC[C@@H](O)[C@H](Cc2ccccc2)NC(=O)c2cc(C(=O)N[C@H](C)c3ccccc3)cc(N(C)S(C)(=O)=O)c2)c1 [Compound 96, methyl 3-(((2R,3S)-2-hydroxy-3-(3-(N-methylmethylsulfonamido)-5-((R)-1-phenylethylcarbamoyl)benzamido)-4-phenylbutylamino)methyl)benzoate] | < 0.3 | < 1
Cc1csc(CN(C)C(=O)c2cccc(C(=O)N[C@@H](Cc3ccccc3)[C@H](O)CNCc3cccc(I)c3)c2)n1 [Compound 97, N1-((2S,3R)-3-hydroxy-4-(3-iodobenzylamino)-1-phenylbutan-2-yl)-N3-methyl-N3-((4-methylthiazol-2-yl)methyl)isophthalamide] | < 0.3 | < 1
CNC(=O)c1cc(C(=O)N[C@@H](Cc2ccccc2)[C@H](O)CNCc2cccc(OC)c2)cc(C(=O)N(C)Cc2nc(C)cs2)c1 [Compound 98, N1-((2S,3R)-3-hydroxy-4-(3-methoxybenzylamino)-1-phenylbutan-2-yl)-N3,N5-dimethyl-N3-((4-methylthiazol-2-yl)methyl)benzene-1,3,5-tricarboxamide] | < 0.3 | 1 to 5
Cc1csc(CN(C)C(=O)c2cc(OS(C)(=O)=O)cc(C(=O)N[C@@H](Cc3ccccc3)[C@H](O)CNCc3cncc(C(C)C)c3)c2)n1 [Compound 100, 3-((2S,3R)-3-hydroxy-4-((5-isopropylpyridin-3-yl)methylamino)-1-phenylbutan-2-ylcarbamoyl)-5-(methyl((4-methylthiazol-2-yl)methyl)carbamoyl)phenyl methanesulfonate] | < 0.3 | < 1
COc1cccc(CNC[C@@H](O)[C@H](Cc2ccccc2)NC(=O)c2cccc(C(=O)NCc3nccc(C)n3)c2)c1 [Compound 102, N1-((2S,3R)-3-hydroxy-4-(3-methoxybenzylamino)-1-phenylbutan-2-yl)-N3-((4-methylpyrimidin-2-yl)methyl)isophthalamide] | > 0.501 | > 5
COc1cccc(CNC[C@@H](O)[C@H](Cc2ccccc2)NC(=O)c2cc(C(N)=O)cc(C(=O)N(C)Cc3nc(C)cs3)c2)c1 [Compound 103, N1-((2S,3R)-3-hydroxy-4-(3-methoxybenzylamino)-1-phenylbutan-2-yl)-N3-methyl-N3-((4-methylthiazol-2-yl)methyl)benzene-1,3,5-tricarboxamide] | < 0.3 | < 1
Cc1csc(CN(C)C(=O)c2cccc(C(=O)N[C@@H](Cc3ccccc3)[C@H](O)CNCc3cccc(Cl)c3)c2)n1 [Compound 104, N1-((2S,3R)-4-(3-chlorobenzylamino)-3-hydroxy-1-phenylbutan-2-yl)-N3-methyl-N3-((4-methylthiazol-2-yl)methyl)isophthalamide] | < 0.3 | < 1
Cc1csc(CN(C)C(=O)c2cccc(C(=O)N[C@@H](Cc3ccccc3)[C@H](O)CNCc3cc(C(C)C)nc(C(C)C)c3)c2)n1 [Compound 106, N1-((2S,3R)-4-((2,6-diisopropylpyridin-4-yl)methylamino)-3-hydroxy-1-phenylbutan-2-yl)-N3-methyl-N3-((4-methylthiazol-2-yl)methyl)isophthalamide] | < 0.3 | < 1
C[C@@H](NC(=O)c1cc(C(=O)N[C@@H](Cc2ccccc2)[C@H](O)CNCc2cccc(CO)c2)cc(N(C)S(C)(=O)=O)c1)c1ccccc1 [Compound 107, N1-((2S,3R)-3-hydroxy-4-(3-(hydroxymethyl)benzylamino)-1-phenylbutan-2-yl)-5-(N-methylmethylsulfonamido)-N3-((R)-1-phenylethyl)isophthalamide] | < 0.3 | < 1
C[C@@H](NC(=O)c1cc(C(=O)N[C@@H](Cc2ccccc2)[C@H](O)CNCc2cc(C(C)(C)C)ccc2O)cc(N(C)S(C)(=O)=O)c1)c1ccccc1 [Compound 110, N1-((2S,3R)-4-(5-tert-butyl-2-hydroxybenzylamino)-3-hydroxy-1-phenylbutan-2-yl)-5-(N-methylmethylsulfonamido)-N3-((R)-1-phenylethyl)isophthalamide] | < 0.3 | < 1
Cc1csc(CN(C)C(=O)c2cccc(C(=O)N[C@@H](Cc3ccccc3)[C@H](O)CNCc3cc(C(C)(C)C)ccc3O)c2)n1 [Compound 111, N1-((2S,3R)-4-(5-tert-butyl-2-hydroxybenzylamino)-3-hydroxy-1-phenylbutan-2-yl)-N3-methyl-N3-((4-methylthiazol-2-yl)methyl)isophthalamide] | < 0.3 | < 1
CNC(=O)c1cc(CNC[C@@H](O)[C@H](Cc2ccccc2)NC(=O)c2cccc(C(=O)N(C)Cc3nc(C)cs3)c2)cc(OC)c1 [Compound 112, N1-((2S,3R)-3-hydroxy-4-(3-methoxy-5-(methylcarbamoyl)benzylamino)-1-phenylbutan-2-yl)-N3-methyl-N3-((4-methylthiazol-2-yl)methyl)isophthalamide] | < 0.3 | < 1
C[C@@H](NC(=O)c1cc(C(=O)N[C@@H](Cc2ccccc2)[C@H](O)CNCc2cccc(C(=O)O)c2)cc(N(C)S(C)(=O)=O)c1)c1ccccc1 [Compound 113, 3-(((2R,3S)-2-hydroxy-3-(3-(N-methylmethylsulfonamido)-5-((R)-1-phenylethylcarbamoyl)benzamido)-4-phenylbutylamino)methyl)benzoic acid] | < 0.3 | < 1
COC(=O)c1cc(CNC[C@@H](O)[C@H](Cc2ccccc2)NC(=O)c2cc(C(=O)N[C@H](C)c3ccccc3)cc(N(C)S(C)(=O)=O)c2)cc(OC)c1 [Compound 114, methyl 3-(((2R,3S)-2-hydroxy-3-(3-(N-methylmethylsulfonamido)-5-((R)-1-phenylethylcarbamoyl)benzamido)-4-phenylbutylamino)methyl)-5-methoxybenzoate] | < 0.3 | < 1
Cc1cccc(CNC[C@@H](O)[C@H](Cc2ccccc2)NC(=O)c2cccc(C(=O)N(C)Cc3nc(C)cs3)c2)n1 [Compound 115, N1-((2S,3R)-3-hydroxy-4-((6-methylpyridin-2-yl)methylamino)-1-phenylbutan-2-yl)-N3-methyl-N3-((4-methylthiazol-2-yl)methyl)isophthalamide] | > 0.501 | < 1
Cc1csc(CN(C)C(=O)c2cccc(C(=O)N[C@@H](Cc3ccccc3)[C@H](O)CNCc3cc(OCc4ccccc4)cc(C(C)C)c3)c2)n1 [Compound 116, N1-((2S,3R)-4-(3-(benzyloxy)-5-isopropylbenzylamino)-3-hydroxy-1-phenylbutan-2-yl)-N3-methyl-N3-((4-methylthiazol-2-yl)methyl)isophthalamide] | < 0.3 | < 1
COc1cccc(CNC[C@@H](O)[C@H](Cc2ccccc2)NC(=O)c2cc(NO)cc(C(=O)N(C)Cc3nc(C)cs3)c2)c1 [Compound 117, N1-((2S,3R)-3-hydroxy-4-(3-methoxybenzylamino)-1-phenylbutan-2-yl)-5-(hydroxyamino)-N3-methyl-N3-((4-methylthiazol-2-yl)methyl)isophthalamide] | < 0.3 | < 1
Cc1csc(CN(C)C(=O)c2cccc(C(=O)N[C@@H](Cc3ccccc3)[C@H](O)CNCc3cnn(C(C)(C)C)c3C)c2)n1 [Compound 118, N1-((2S,3R)-4-((1-tert-butyl-5-methyl-1H-pyrazol-4-yl)methylamino)-3-hydroxy-1-phenylbutan-2-yl)-N3-methyl-N3-((4-methylthiazol-2-yl)methyl)isophthalamide] | > 0.501 | 1 to 5
